The source of these data is ChEMBL document CHEMBL5346973 (J Med Chem, 2023).

Assay [1] has as its target Nicotinic acetylcholine receptor alpha9/alpha10 (Rattus norvegicus, UniProt P43144+Q9JLB5). Kind of assay: Antagonist activity at rat alpha9alpha10 nACh receptor expressed in Xenopus oocyte assessed as inhibition of acetylcholine-induced response at -70 mV holding potential by voltage-clamp based electrophysiological assay. The class given is cell-based.
For assay [2], the target named is Neuronal acetylcholine receptor subunit alpha-7 (Rattus norvegicus, UniProt Q05941). The assay is described as follows: Antagonist activity at rat alpha7 nACh receptor expressed in Xenopus oocyte assessed as inhibition of acetylcholine-induced response at -70 mV holding potential by voltage-clamp based electrophysiological assay. The class given is cell-based.

Where a SMILES comes first, the peptide text is derived from it. Where only a bound is given, the exact number is not on record here.

Chain of Neuronal acetylcholine receptor subunit alpha-7 (Q05941 whole entry): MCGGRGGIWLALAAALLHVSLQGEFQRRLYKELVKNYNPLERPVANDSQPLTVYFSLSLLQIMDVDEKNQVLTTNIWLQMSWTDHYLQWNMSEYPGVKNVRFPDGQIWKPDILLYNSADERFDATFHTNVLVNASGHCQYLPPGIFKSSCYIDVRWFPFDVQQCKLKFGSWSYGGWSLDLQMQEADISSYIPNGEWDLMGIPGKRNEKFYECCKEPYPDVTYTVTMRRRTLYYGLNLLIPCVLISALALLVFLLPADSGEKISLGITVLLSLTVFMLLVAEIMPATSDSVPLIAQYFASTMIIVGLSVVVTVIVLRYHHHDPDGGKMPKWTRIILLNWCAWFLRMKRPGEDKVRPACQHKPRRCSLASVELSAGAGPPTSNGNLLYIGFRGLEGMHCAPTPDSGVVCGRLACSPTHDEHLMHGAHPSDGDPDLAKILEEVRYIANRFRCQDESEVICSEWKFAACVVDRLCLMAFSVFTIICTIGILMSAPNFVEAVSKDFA
Chain of Nicotinic acetylcholine receptor alpha9/alpha10 (P43144 whole entry): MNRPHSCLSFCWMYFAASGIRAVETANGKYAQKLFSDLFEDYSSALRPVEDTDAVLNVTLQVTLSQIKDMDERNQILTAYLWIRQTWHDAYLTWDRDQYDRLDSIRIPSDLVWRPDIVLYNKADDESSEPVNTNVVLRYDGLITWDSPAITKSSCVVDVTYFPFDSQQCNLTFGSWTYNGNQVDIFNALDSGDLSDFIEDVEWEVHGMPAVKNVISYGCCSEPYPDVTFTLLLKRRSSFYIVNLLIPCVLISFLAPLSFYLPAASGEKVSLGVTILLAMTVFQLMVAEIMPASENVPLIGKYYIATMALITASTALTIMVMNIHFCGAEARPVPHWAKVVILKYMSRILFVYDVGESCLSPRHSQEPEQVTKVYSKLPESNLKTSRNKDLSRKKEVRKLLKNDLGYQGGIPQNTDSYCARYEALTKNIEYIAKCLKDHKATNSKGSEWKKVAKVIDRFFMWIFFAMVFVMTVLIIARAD
Chain of Nicotinic acetylcholine receptor alpha9/alpha10 (Q9JLB5 whole entry): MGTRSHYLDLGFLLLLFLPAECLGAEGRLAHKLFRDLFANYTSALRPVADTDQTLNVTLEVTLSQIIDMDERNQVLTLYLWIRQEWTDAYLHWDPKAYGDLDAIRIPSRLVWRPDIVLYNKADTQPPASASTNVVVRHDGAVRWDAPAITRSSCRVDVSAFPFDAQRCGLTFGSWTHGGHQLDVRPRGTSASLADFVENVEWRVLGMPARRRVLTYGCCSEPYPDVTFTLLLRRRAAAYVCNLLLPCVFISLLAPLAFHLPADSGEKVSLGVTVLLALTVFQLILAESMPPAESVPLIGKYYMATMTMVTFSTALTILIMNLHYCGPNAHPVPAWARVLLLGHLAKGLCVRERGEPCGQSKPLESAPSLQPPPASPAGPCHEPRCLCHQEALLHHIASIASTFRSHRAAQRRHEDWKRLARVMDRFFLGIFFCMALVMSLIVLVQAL

The term IC50 denotes the midpoint of a concentration-inhibition curve. `CC[C@H](C)[C@@H]1NC(=O)[C@H](CCCNC(=N)N)NC(=O)[C@H](CCCNC(=N)N)NC(=O)[C@@H](NC(=O)[C@H](Cc2ccc(O)cc2)NC(=O)[C@H](CCCNC(=N)N)NC(=O)[C@H](CCCNC(=N)N)NC(=O)[C@H](CCCNC(=N)N)NC(=O)[C@H](CCCNC(=N)N)NC(=O)[C@H](CC(=O)O)NC(=O)[C@H](Cc2ccc(O)cc2)NC(=O)[C@@H]2CCCN2C(=O)[C@H](C)NC(=O)[C@H](CCCNC(=N)N)NC(=O)[C@@H]2CSSC[C@H](NC(=O)[C@@H](N)[C@@H](C)O)C(=O)N[C@@H](CCCNC(=N)N)C(=O)N[C@@H](CO)C(=O)N[C@@H](CO)C(=O)NCC(=O)N[C@@H](CCCNC(=N)N)C(=O)N[C@@H](Cc3ccc(O)cc3)C(=O)N2)CSSC[C@@H](C(=O)N[C@H](C(=O)O)C(C)C)NC(=O)[C@H](C)NC(=O)[C@H](CC(=O)O)NC(=O)[C@H]([C@@H](C)O)NC1=O` (HELM PEPTIDE1{T.C.R.S.S.G.R.Y.C.R.A.P.Y.D.R.R.R.R.Y.C.R.R.I.T.D.A.C.V}$PEPTIDE1,PEPTIDE1,2:R3-9:R3|PEPTIDE1,PEPTIDE1,20:R3-27:R3$$$V2.0): the IC50 in assay [1] was determined as 26 nM; in assay [2], 2060 nM.
Turning to `CC[C@H](C)[C@@H]1NC(=O)[C@H](CCCNC(=N)N)NC(=O)[C@H](CCCNC(=N)N)NC(=O)[C@@H]2CSSC[C@H](NC(=O)[C@H](Cc3ccc(O)cc3)NC(=O)[C@H](CCCNC(=N)N)NC(=O)CNC(=O)[C@H](CO)NC(=O)[C@H](CO)NC(=O)[C@H](CCCNC(=N)N)NC(=O)[C@@H](NC(=O)[C@@H](N)[C@@H](C)O)CSSC[C@@H](C(=O)N[C@H](C(=O)O)C(C)C)NC(=O)[C@H](C)NC(=O)[C@H](CC(=O)O)NC(=O)[C@H]([C@@H](C)O)NC1=O)C(=O)N[C@@H](CCCNC(=N)N)C(=O)N[C@@H](CO)C(=O)N1CCC[C@H]1C(=O)N[C@@H](Cc1ccc(O)cc1)C(=O)N[C@@H](CC(=O)O)C(=O)N[C@@H](CCCNC(=N)N)C(=O)N[C@@H](CCCNC(=N)N)C(=O)N[C@@H](CCCNC(=N)N)C(=O)N[C@@H](CCCNC(=N)N)C(=O)N[C@@H](C)C(=O)N2`, the IC50 in assay [1] is 38 nM; in assay [2], 7640 nM.
The corresponding values for `CC[C@H](C)[C@@H]1NC(=O)[C@H](CCCNC(=N)N)NC(=O)[C@H](CCCNC(=N)N)NC(=O)[C@@H](NC(=O)[C@H](C)NC(=O)[C@H](CCCNC(=N)N)NC(=O)[C@H](CCCNC(=N)N)NC(=O)[C@H](CCCNC(=N)N)NC(=O)[C@H](CCCNC(=N)N)NC(=O)[C@H](CC(=O)O)NC(=O)[C@H](Cc2ccc(O)cc2)NC(=O)[C@@H]2CCCN2C(=O)[C@H](CO)NC(=O)[C@H](CCCNC(=N)N)NC(=O)[C@@H]2CSSC[C@H](NC(=O)[C@@H](N)[C@@H](C)O)C(=O)N[C@@H](CCCNC(=N)N)C(=O)N[C@@H](CO)C(=O)N[C@@H](CO)C(=O)NCC(=O)N[C@@H](CCCNC(=N)N)C(=O)N[C@@H](Cc3ccc(O)cc3)C(=O)N2)CSSC[C@@H](C(=O)N[C@H](C(=O)O)C(C)C)NC(=O)[C@H](C)NC(=O)[C@H](CC(=O)O)NC(=O)[C@H]([C@@H](C)O)NC1=O` are 16 nM and 4620 nM.
On the same counts, the results for `CC[C@H](C)[C@@H]1NC(=O)[C@H](CCCNC(=N)N)NC(=O)[C@H](CCCNC(=N)N)NC(=O)[C@@H](NC(=O)[C@H](Cc2ccc(O)cc2)NC(=O)[C@H](CCCNC(=N)N)NC(=O)[C@H](CCCNC(=N)N)NC(=O)[C@H](CCCNC(=N)N)NC(=O)[C@H](CCCNC(=N)N)NC(=O)[C@H](CC(=O)O)NC(=O)[C@H](Cc2ccc(O)cc2)NC(=O)[C@@H]2CCCN2C(=O)[C@H](CO)NC(=O)[C@H](CCCNC(=N)N)NC(=O)[C@@H]2CSSC[C@H](NC(=O)[C@@H](N)[C@@H](C)O)C(=O)N[C@@H](CCCNC(=N)N)C(=O)N[C@@H](CO)C(=O)N[C@@H](CO)C(=O)N[C@@H](C)C(=O)N[C@@H](CCCNC(=N)N)C(=O)N[C@@H](Cc3ccc(O)cc3)C(=O)N2)CSSC[C@H](C(=O)N[C@H](C(=O)O)C(C)C)NC(=O)[C@H](C)NC(=O)[C@H](CC(=O)O)NC(=O)[C@H]([C@@H](C)O)NC1=O` are 4.5 nM and 1460 nM.
In the case of `CC[C@H](C)[C@@H]1NC(=O)[C@H](CCCNC(=N)N)NC(=O)[C@H](CCCNC(=N)N)NC(=O)[C@@H]2CSSC[C@H](NC(=O)[C@H](Cc3ccc(O)cc3)NC(=O)[C@H](CCCNC(=N)N)NC(=O)CNC(=O)[C@H](CO)NC(=O)[C@H](C)NC(=O)[C@H](CCCNC(=N)N)NC(=O)[C@@H](NC(=O)[C@@H](N)[C@@H](C)O)CSSC[C@@H](C(=O)N[C@H](C(=O)O)C(C)C)NC(=O)[C@H](C)NC(=O)[C@H](CC(=O)O)NC(=O)[C@H]([C@@H](C)O)NC1=O)C(=O)N[C@@H](CCCNC(=N)N)C(=O)N[C@@H](CO)C(=O)N1CCC[C@H]1C(=O)N[C@@H](Cc1ccc(O)cc1)C(=O)N[C@@H](CC(=O)O)C(=O)N[C@@H](CCCNC(=N)N)C(=O)N[C@@H](CCCNC(=N)N)C(=O)N[C@@H](CCCNC(=N)N)C(=O)N[C@@H](CCCNC(=N)N)C(=O)N[C@@H](Cc1ccc(O)cc1)C(=O)N2`, the values for the IC50 in assay [1] and in assay [2] were 17 nM and 4100 nM, respectively.
On to `CC[C@H](C)[C@@H]1NC(=O)[C@H](C)NC(=O)[C@H](CCCNC(=N)N)NC(=O)[C@@H]2CSSC[C@H](NC(=O)[C@H](Cc3ccc(O)cc3)NC(=O)[C@H](CCCNC(=N)N)NC(=O)CNC(=O)[C@H](CO)NC(=O)[C@H](CO)NC(=O)[C@H](CCCNC(=N)N)NC(=O)[C@@H](NC(=O)[C@@H](N)[C@@H](C)O)CSSC[C@@H](C(=O)N[C@H](C(=O)O)C(C)C)NC(=O)[C@H](C)NC(=O)[C@H](CC(=O)O)NC(=O)[C@H]([C@@H](C)O)NC1=O)C(=O)N[C@@H](CCCNC(=N)N)C(=O)N[C@@H](CO)C(=O)N1CCC[C@H]1C(=O)N[C@@H](Cc1ccc(O)cc1)C(=O)N[C@@H](CC(=O)O)C(=O)N[C@@H](CCCNC(=N)N)C(=O)N[C@@H](CCCNC(=N)N)C(=O)N[C@@H](CCCNC(=N)N)C(=O)N[C@@H](CCCNC(=N)N)C(=O)N[C@@H](Cc1ccc(O)cc1)C(=O)N2`, for which the IC50 was 185 nM in assay [1] and over 10000 nM in assay [2].
For the compound `CC[C@H](C)[C@@H]1NC(=O)[C@H](CCCNC(=N)N)NC(=O)[C@H](CCCNC(=N)N)NC(=O)[C@@H](NC(=O)[C@H](Cc2ccc(O)cc2)NC(=O)[C@H](CCCNC(=N)N)NC(=O)[C@H](CCCNC(=N)N)NC(=O)[C@H](CCCNC(=N)N)NC(=O)[C@H](C)NC(=O)[C@H](CC(=O)O)NC(=O)[C@H](Cc2ccc(O)cc2)NC(=O)[C@@H]2CCCN2C(=O)[C@H](CO)NC(=O)[C@H](CCCNC(=N)N)NC(=O)[C@@H]2CSSC[C@H](NC(=O)[C@H](N)[C@H](C)O)C(=O)N[C@@H](CCCNC(=N)N)C(=O)N[C@@H](CO)C(=O)N[C@@H](CO)C(=O)NCC(=O)N[C@@H](CCCNC(=N)N)C(=O)N[C@@H](Cc3ccc(O)cc3)C(=O)N2)CSSC[C@@H](C(=O)N[C@H](C(=O)O)C(C)C)NC(=O)[C@H](C)NC(=O)[C@H](CC(=O)O)NC(=O)[C@H]([C@@H](C)O)NC1=O`, the IC50 in assay [1] amounted to 32 nM; in assay [2], 3280 nM.
`CC[C@H](C)[C@@H]1NC(=O)[C@H](CCCNC(=N)N)NC(=O)[C@H](CCCNC(=N)N)NC(=O)[C@@H](NC(=O)[C@H](Cc2ccc(O)cc2)NC(=O)[C@H](CCCNC(=N)N)NC(=O)[C@H](CCCNC(=N)N)NC(=O)[C@H](CCCNC(=N)N)NC(=O)[C@H](CCCNC(=N)N)NC(=O)[C@H](CC(=O)O)NC(=O)[C@H](Cc2ccc(O)cc2)NC(=O)[C@H](C)NC(=O)[C@H](CO)NC(=O)[C@H](CCCNC(=N)N)NC(=O)[C@@H]2CSSC[C@H](NC(=O)[C@@H](N)[C@@H](C)O)C(=O)N[C@H](CCCNC(=N)N)C(=O)N[C@@H](CO)C(=O)N[C@@H](CO)C(=O)NCC(=O)N[C@@H](CCCNC(=N)N)C(=O)N[C@@H](Cc3ccc(O)cc3)C(=O)N2)CSSC[C@@H](C(=O)N[C@H](C(=O)O)C(C)C)NC(=O)[C@H](C)NC(=O)[C@H](CC(=O)O)NC(=O)[C@H]([C@@H](C)O)NC1=O`: the IC50 was determined as 16 nM in assay [1] and 2250 nM in assay [2].
On to `CC[C@H](C)[C@@H]1NC(=O)[C@H](CCCNC(=N)N)NC(=O)[C@H](CCCNC(=N)N)NC(=O)[C@@H](NC(=O)[C@H](Cc2ccc(O)cc2)NC(=O)[C@H](CCCNC(=N)N)NC(=O)[C@H](CCCNC(=N)N)NC(=O)[C@H](CCCNC(=N)N)NC(=O)[C@H](CCCNC(=N)N)NC(=O)[C@H](CC(=O)O)NC(=O)[C@H](Cc2ccc(O)cc2)NC(=O)[C@@H]2CCCN2C(=O)[C@H](CO)NC(=O)[C@H](CCCNC(=N)N)NC(=O)[C@@H]2CSSC[C@H](NC(=O)[C@@H](N)[C@@H](C)O)C(=O)N[C@@H](CCCNC(=N)N)C(=O)N[C@@H](CO)C(=O)N[C@@H](CO)C(=O)NCC(=O)N[C@@H](CCCNC(=N)N)C(=O)N[C@@H](Cc3ccc(O)cc3)C(=O)N2)CSSC[C@@H](C(=O)N[C@@H](C)C(=O)O)NC(=O)[C@H](C)NC(=O)[C@H](CC(=O)O)NC(=O)[C@H]([C@@H](C)O)NC1=O`, for which the IC50 in assay [1] came to 15 nM; in assay [2], 760 nM.
For `CC[C@H](C)[C@@H]1NC(=O)[C@H](C)NC(=O)[C@H](CCCNC(=N)N)NC(=O)[C@@H](NC(=O)[C@H](Cc2ccc(O)cc2)NC(=O)[C@H](CCCNC(=N)N)NC(=O)[C@H](CCCNC(=N)N)NC(=O)[C@H](CCCNC(=N)N)NC(=O)[C@H](CCCNC(=N)N)NC(=O)[C@H](CC(=O)O)NC(=O)[C@H](Cc2ccc(O)cc2)NC(=O)[C@@H]2CCCN2C(=O)[C@H](CO)NC(=O)[C@H](CCCNC(=N)N)NC(=O)[C@@H]2CSSC[C@H](NC(=O)[C@@H](N)[C@@H](C)O)C(=O)N[C@@H](CCCNC(=N)N)C(=O)N[C@@H](CO)C(=O)N[C@@H](CO)C(=O)NCC(=O)N[C@@H](CCCNC(=N)N)C(=O)N[C@@H](Cc3ccc(O)cc3)C(=O)N2)CSSC[C@@H](C(=O)N[C@H](C(=O)O)C(C)C)NC(=O)[C@H](C)NC(=O)[C@H](CC(=O)O)NC(=O)[C@H]([C@@H](C)O)NC1=O`, the IC50 in assay [1] worked out at 54 nM; in assay [2], 600 nM.
